Patent publication US12565504B2, “Spirocyclic O-glycoprotein-2-acetamido-2-deoxy-3-d-glucopyranosidase inhibitors” (BIOGEN MA INC., priority 2019, dated 2026)
Like-named read-outs stand apart in the source and are kept apart here.

Columns and labels:
[1] = target: Recombinant full length human OGA enzyme (Homo sapiens (Human), UniProt O60502); assay: OGA Enzyme Inhibition Biochemical Assay; conditions: 1 nM OGA, 100 μM 4-MUGlcNAc, 90 minutes, pH 6.4
Summary of the method: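 Full-length recombinant human OGA with fluorogenic 4-MUGlcNAc in McIlvaine buffer pH 6.4, 0.01% BSA; 90 min at room temperature, glycine pH 10 quench, fluorescence Ex 355/Em 460 nm. 10-point, 4-fold dilution from 20 μM; 4-parameter variable-slope fit.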

OGA (S400 O-GLCNAC) = OGA (S400 O-GLCNAC) (Homo sapiens (Human), UniProt O60502); assay: Cellular OGA-Tau MSD Assay; assay type: cell-based; conditions: HEK-293T cells transfected with OGT and Tau-V5; Tau-S400-GlcNAc MSD readout
Summary of the method: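 HEK-293T cells transiently co-expressing OGT and Tau-V5 were treated overnight at 37° C with compounds (top 1 uM, 3-fold, 10 points). Lysate Tau was captured on V5 antibody, and S400-GlcNAc was detected by MSD electrochemiluminescence. IC50 was derived from a 4-parameter fit of normalized % activity.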

[2] = Rat Liver Microsome Stability Assay; conditions: rat liver microsomes 0.5 mg/mL, compound 1 μM; Qh 55 mL/minute/kg
Description: (§1) Aliquots (40 uL) at 0, 5, 10, 15, 25 and 40 minutes post NADPH addition (or compound addition for reactions in absence of NADPH) were transferred into individual 96-well plate wells containing 40 ng/ml of 8-cyclopently-1,3-dipropylxanthine (CPDPX, internal standard) in 160 uL acetonitrile:methanol (1:1 v/v).
(§2) The LC/MS/MS system consisted of an ultra high throughput RapidFire® 300 system (Agilent Technologies, Santa Clara, CA) coupled to a Triple Quad 5500 mass spectrometer (ABSciex, Foster City, CA). Sample load and wash were performed on a RapidFire® C4 cartridge using 0.1% formic acid in water as mobile phase A and sample elution using 0.1% formic acid in acetonitrile:methanol (1:1 v/v) as mobile phase B.
(§3) CLint, app (apparent intrinsic clearance) was calculated using the following equation for microsome stability.
(§4) [formula] • where “a” represents 45 grams of liver/kg of body weight for rat. • CLint,app (apparent intrinsic clearance) was calculated using the following equation for hepatocyte stability: • CLhep (hepatic clearance) was calculated using the following equation for microsomes
(§5) [formula] • using 55 mL/minute/kg as Qh (hepatic blood flow) for rat.

P-gp (MDR1) = assay: MDR1-MDCK Efflux Ratio Assay; assay type: in vitro ADME; conditions: dog, MDR1-MDCK cells, pH 7.4, read-out: MDR1-MDCK Efflux Ratio (B-A/A-B)
Description: MDR1-MDCK cell monolayers were grown to confluence on microporous polyester membranes in 96-well Corning insert plates. The permeability assay buffer was Hanks' Balanced Salt Solution containing 10 mM HEPES at pH of 7.4. Loperamide (1 μM) was used as a positive control P-gp substrate. Propranolol and Bestatin (1 μM) were used as high and low permeability comparators, respectively.
Test compounds or positive control P-gp substrate/permeability comprators were added to respective apical and basolateral chambers for bidirectional assessment of permeability. Receiver buffer (transport buffer supplemented with 1% bovine serum albumin) was added to respective receiver chambers. MDR1-MDCK cells were incubated with test compounds at 37° C. with 5% CO2 for 2 hr. Samples were collected from the donor chamber at both 0 and 120 minutes, and from the receiver chamber at 120 minutes. Test and control compound concentrations were determined using LC-MS/MS analysis. Each determination was performed in triplicate.

[3] = rat, microsomes, 1 μM, pH 7.4
Description: as §1, §2, §3, §4, §5

Sequence of OGA (S400 O-GLCNAC) (O60502 whole entry): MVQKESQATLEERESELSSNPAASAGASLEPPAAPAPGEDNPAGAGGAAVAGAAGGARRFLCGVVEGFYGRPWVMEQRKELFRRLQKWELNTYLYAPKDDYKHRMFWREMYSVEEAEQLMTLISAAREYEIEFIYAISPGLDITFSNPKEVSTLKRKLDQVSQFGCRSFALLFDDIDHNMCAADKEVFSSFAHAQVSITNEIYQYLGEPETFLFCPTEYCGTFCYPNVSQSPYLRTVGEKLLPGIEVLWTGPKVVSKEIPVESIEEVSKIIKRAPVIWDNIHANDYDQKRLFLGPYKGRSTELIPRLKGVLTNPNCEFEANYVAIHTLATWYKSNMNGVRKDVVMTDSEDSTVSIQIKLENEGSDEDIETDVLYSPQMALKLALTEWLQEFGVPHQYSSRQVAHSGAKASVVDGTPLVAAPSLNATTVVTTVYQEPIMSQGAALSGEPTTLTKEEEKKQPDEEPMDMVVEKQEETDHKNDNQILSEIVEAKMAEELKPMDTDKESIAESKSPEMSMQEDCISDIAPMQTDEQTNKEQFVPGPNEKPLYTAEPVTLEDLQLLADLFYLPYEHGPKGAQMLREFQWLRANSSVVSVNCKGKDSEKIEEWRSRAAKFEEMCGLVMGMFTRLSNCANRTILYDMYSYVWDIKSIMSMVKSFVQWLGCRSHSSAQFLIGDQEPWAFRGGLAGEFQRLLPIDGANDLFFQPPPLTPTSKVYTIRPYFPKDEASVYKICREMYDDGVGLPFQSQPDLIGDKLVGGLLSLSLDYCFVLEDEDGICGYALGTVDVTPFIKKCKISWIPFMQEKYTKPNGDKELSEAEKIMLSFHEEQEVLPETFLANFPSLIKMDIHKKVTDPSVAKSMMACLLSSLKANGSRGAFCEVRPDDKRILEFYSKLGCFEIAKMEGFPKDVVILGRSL
Sequence of Recombinant full length human OGA enzyme (O60502 whole entry): as above

Row | Structure (SMILES) | IC50 [1] [µM] | IC50 (OGA (S400 O-GLCNAC)) [µM] | RLM % Qh (%) [2] [%] | efflux ratio at 2 hr (P-gp (MDR1)) | RLM % Qh (%) [3] [%]
1 | CC(=O)Nc1ncc(CN2C[C@@]3(Cc4cc(N5C[C@@H](C)O[C@H](C)C5)ncc4O3)C[C@@H]2C)s1 [Example 40, N-(5-(((2R,5′S)-5-((2R,6R)-2,6-Dimethylmorpholino)-5′-methyl-3H-spiro[furo[2,3-c]pyridine-2,3′-pyrrolidin]-1′-yl)methyl)thiazol-2-yl)acetamide] | 0.0015 | 0.014 | 54 | 27 | 
2 | CC(=O)Nc1ncc(CN2C[C@@]3(Cc4cc(N5C[C@H](C)O[C@@H](C)C5)ncc4O3)C[C@@H]2C)s1 [Example 42, N-(5-(((2R,5′S)-5-((2S,6S)-2,6-Dimethylmorpholino)-5′-methyl-3H-spiro[furo[2,3-c]pyridine-2,3′-pyrrolidin]-1′-yl)methyl)thiazol-2-yl)acetamide] | 0.0019 | 0.014 | 66 | 25 | 
3 | CC(=O)Nc1nc(F)c(CN2C[C@@]3(Cc4cc(=O)n(C)cc4O3)C[C@@H]2C)s1 [Example 48, N-(5-(((2R,5′S)-5′,6-Dimethyl-5-oxo-5,6-dihydro-3H-spiro[furo[2,3-c]pyridine-2,3′-pyrrolidin]-1′-yl)methyl)-4-fluorothiazol-2-yl)acetamide] | 0.0014 | 0.034 | 16 | 12 | 
4 | CC(=O)Nc1ncc(CN2CCCC3(CCCO3)C2)s1 (stereo not shown) [Example 52, N-(5-((1-Oxa-7-azaspiro[4.5]decan-7-yl)methyl)thiazol-2-yl)acetamide] | 0.18 | > 1 | 74 | 2.6 | 
5 | CC(=O)Nc1nc(F)c(CN2CCCC3(COc4ccccc43)C2)s1 (stereo not shown) [Example 54, N-(5-((2H-Spiro[benzofuran-3,3′-piperidin]-1′-yl)methyl)-4-fluorothiazol-2-yl)acetamide] | 1.5 | > 1 | 94 | 0.8 | 
6 | CC(=O)Nc1ncc(CN2CCC3(C2)OCc2ccccc23)s1 (stereo not shown) [Example 57, N-(5-((3H-Spiro[isobenzofuran-1,3′-pyrrolidin]-1′-yl)methyl)thiazol-2-yl)acetamide] | 0.17 | 0.818 | 88 | 2.4 | 
7 | CC(=O)Nc1ncc(CN2CC3(C[C@@H]2C)OCc2ccccc23)s1 (stereo partly drawn) [Example 59, N-(5-(((5′S)-5′-Methyl-3H-spiro[isobenzofuran-1,3′-pyrrolidin]-1′-yl)methyl)thiazol-2-yl)acetamide] | 0.009 | 0.016 | 94 | 3.5 | 
8 | CC(=O)Nc1nc(F)c(CN2CC3(C[C@@H]2C)OCc2cccnc23)s1 (stereo partly drawn) [Example 63, N-(4-Fluoro-5-(((5′S)-5′-methyl-5H-spiro[furo[3,4-b]pyridine-7,3′-pyrrolidin]-1′-yl)methyl)thiazol-2-yl)acetamide] | 0.013 | 0.057 | 78 | 26 | 
9 | CC(=O)Nc1ncc(CN2CCCC3(C2)OCc2cnccc23)s1 (stereo not shown) [Example 68, N-(5-((3H-Spiro[furo[3,4-c]pyridine-1,3′-piperidin]-1′-yl)methyl)thiazol-2-yl)acetamide] | 0.006 | 0.018 | 84 | 10.7 | 
10 | CC(=O)Nc1nc(F)c(CN2CCCC3(C2)OCc2ccncc23)s1 (stereo not shown) [Example 73, N-(5-((1H-Spiro[furo[3,4-c]pyridine-3,3′-piperidin]-1′-yl)methyl)-4-fluorothiazol-2-yl)acetamide] | 0.0092 | 0.0237 | 78 | 21.6 | 
11 | CC(=O)Nc1ncc(CN2CCCC3(C2)OCc2ccncc23)s1 (stereo not shown) [Example 74, N-(5-((1H-Spiro[furo[3,4-c]pyridine-3,3′-piperidin]-1′-yl)methyl)thiazol-2-yl)acetamide] | 0.013 | 0.0226 | 75 | 36.5 | 
12 | COc1nccc2c1COC21C[C@H](C)N(Cc2cnc(NC(C)=O)s2)C1 (stereo partly drawn) [Example 78, N-(5-(((5′S)-4-Methoxy-5′-methyl-3H-spiro[furo[3,4-c]pyridine-1,3′-pyrrolidin]-1′-yl)methyl)thiazol-2-yl)acetamide] | 0.065 | 0.009 | 93 | 7.9 | 
13 | COc1nccc2c1COC21CCCN(Cc2cnc(NC(C)=O)s2)C1 (stereo not shown) [Example 82, N-(5-((4-Methoxy-3H-spiro[furo[3,4-c]pyridine-1,3′-piperidin]-1′-yl)methyl)thiazol-2-yl)acetamide] | 0.0016 | 0.126 | 78 | 4.4 | 
14 | CC(=O)Nc1nc(F)c(CN2CCCC3(C2)OCc2c3cc[nH]c2=O)s1 (stereo not shown) [Example 86, N-(4-Fluoro-5-((4-oxo-4,5-dihydro-3H-spiro[furo[3,4-c]pyridine-1,3′-piperidin]-1′-yl)methyl)thiazol-2-yl)acetamide] | 0.0145 | 0.138 | 37 | 32.6 | 
15 | CC(=O)Nc1nc(F)c(CN2CCC3(Cc4ncccc4O3)C2)s1 (stereo not shown) [Example 91, N-(5-((3H-spiro[furo[3,2-b]pyridine-2,3′-pyrrolidin]-1′-yl)methyl)-4-fluorothiazol-2-yl)acetamide] | 0.07 |  |  |  | 45

These reach a lower IC50 [1]. Values come first.

Row | IC50 [1] [µM] | IC50 (OGA (S400 O-GLCNAC)) [µM] | RLM % Qh (%) [2] [%] | efflux ratio at 2 hr (P-gp (MDR1)) | Structure (SMILES) | RLM % Qh (%) [3] [%]
16 | < 0.001 | 0.008 | 65 | 19.5 | CC(=O)Nc1nc(F)c(CN2C[C@@]3(Cc4cc(N5C[C@@H](C)O[C@H](C)C5)ncc4O3)C[C@@H]2C)s1 [Example 41, N-(5-(((2R,5′S)-5-((2R,6R)-2,6-Dimethylmorpholino)-5′-methyl-3H-spiro[furo[2,3-c]pyridine-2,3′-pyrrolidin]-1′-yl)methyl)-4-fluorothiazol-2-yl)acetamide] | 
17 | < 0.001 | 0.008 | 75 | 17.5 | CC(=O)Nc1nc(F)c(CN2C[C@@]3(Cc4cc(N5C[C@H](C)O[C@@H](C)C5)ncc4O3)C[C@@H]2C)s1 [Example 43, N-(5-(((2R,5′S)-5-((2S,6S)-2,6-Dimethylmorpholino)-5′-methyl-3H-spiro[furo[2,3-c]pyridine-2,3′-pyrrolidin]-1′-yl)methyl)-4-fluorothiazol-2-yl)acetamide] | 
18 | < 0.001 | 0.003 | 65 | 94 | CC(=O)Nc1nc(F)c(CN2C[C@@]3(Cc4cc(N5CCN(C)CC5)ncc4O3)C[C@@H]2C)s1 [Example 45, N-(4-Fluoro-5-(((2R,5′S)-5′-methyl-5-(4-methylpiperazin-1-yl)-3H-spiro[furo[2,3-c]pyridine-2,3′-pyrrolidin]-1′-yl)methyl)thiazol-2-yl)acetamide] | 
19 | < 0.001 | 0.009 | 53 | 9.2 | COCCOc1cc2c(cn1)O[C@]1(C2)C[C@H](C)N(Cc2sc(NC(C)=O)nc2F)C1 [Example 47, N-(4-Fluoro-5-(((2R,5′S)-5-(2-methoxyethoxy)-5′-methyl-3H-spiro[furo[2,3-c]pyridine-2,3′-pyrrolidin]-1′-yl)methyl)thiazol-2-yl)acetamide] | 
20 | 0.001 | 0.073 | 16 | 2.5 | CC(=O)Nc1nc(F)c(CN2C[C@@]3(Cc4cc(=O)[nH]cc4O3)C[C@@H]2C)s1 [Example 49, N-(4-Fluoro-5-(((2R,5′S)-5′-methyl-5-oxo-5,6-dihydro-3H-spiro[furo[2,3-c]pyridine-2,3′-pyrrolidin]-1′-yl)methyl)thiazol-2-yl)acetamide] | 
21 | 0.0011 | 0.0151 | 78 | 2.5 | COc1nccc2c1COC21CCCN(Cc2sc(NC(C)=O)nc2F)C1 (stereo not shown) [Example 81, N-(4-Fluoro-5-((4-methoxy-3H-spiro[furo[3,4-c]pyridine-1,3′-piperidin]-1′-yl)methyl)thiazol-2-yl)acetamide] | 
